Assay results: patent US20150005288A1, “SUBSTITUTED PHENYLIMIDAZOPYRAZOLES AND USE THEREOF” (Bayer Intellectual Property GmbH, priority 2012, published 2015)

The molecules below were run against T1, intracellular domain of human Tie2 (GST fusion protein) (Homo sapiens, UniProt Q02763) (assay: Tie2 kinase assay (Tie2-TR-FRET)). Conditions: ATP concentration 1 mM, in some cases means of several independent determinations.
T1 construct: intracellular domain of human Tie2 (amino acids 776-1124); made in house; host or cells: Baculovirus-infected insect cells (Hi5)
T1 sequence (Q02763 776-1124): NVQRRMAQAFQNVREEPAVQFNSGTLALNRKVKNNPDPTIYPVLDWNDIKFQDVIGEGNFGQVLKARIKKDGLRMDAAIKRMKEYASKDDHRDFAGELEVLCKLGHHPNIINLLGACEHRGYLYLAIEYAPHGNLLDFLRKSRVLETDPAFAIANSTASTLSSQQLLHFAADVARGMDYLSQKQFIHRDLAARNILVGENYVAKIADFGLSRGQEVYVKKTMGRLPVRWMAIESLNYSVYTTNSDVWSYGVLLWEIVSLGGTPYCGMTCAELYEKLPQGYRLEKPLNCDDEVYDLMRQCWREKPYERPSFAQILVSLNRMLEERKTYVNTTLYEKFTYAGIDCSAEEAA
Type: biochemical
Protocol: The Tie2-inhibitory activity of the substances according to the invention was determined with the aid of one of the Tie2-TR-FRET assays described in the sections below at an ATP concentration of 1 mM (TR-FRET=Time-Resolved Fluorescence Resonance Energy Transfer):
The enzyme used was a recombinant fusion protein of glutathione S-transferase (GST) and the intracellular domain of human Tie2 (amino acids 776-1124) which was expressed in Baculovirus-infected insect cells (Hi5) and was purified by affinity chromatography on glutathione-Sepharose. Alternatively, it is also possible to use commercially available GST-His6-Tie2 fusion protein (ProQinase GmbH, Freiburg im Breisgau, Germany). The substrate used for the kinase reaction was the biotinylated peptide biotin-Ahx-[…] (C-terminus in amide form) which is commercially available (for example from Biosyntan, Berlin, Germany).
For the assay, 50 nl of a 100-fold concentrated solution of the respective test substance in DMSO were pipetted into a black low-volume 384-well microtitre plate (Greiner Bio-One, Frickenhausen, Germany) 2 μl of a solution of the Tie2 fusion protein in assay buffer [50 mM HEPES/HCl pH 7, 10 mM MgCl2, 2.5 mM MnCl2, 1 mM dithiothreitol, 0.01% (v/v) Nonidet P-40, 0.1% (w/v) bovine serum albumin (BSA), 1× Complete EDTA-free protease inhibitor mixture (Roche)] were added, and the mixture was incubated for 15 min to allow pre-binding of the substance to the enzyme prior to the kinase reaction. The kinase reaction was then started by adding 3 μl of a solution of adenosine triphosphate (ATP, 1.67 mM→final concentration in 5 μl assay volume=1 mM) and substrate (1.67 μM→final concentration in 5 μl assay volume=1 μM) in assay buffer, and the resulting mixture was incubated for a reaction time of 60 min at 22° C. The concentration of the Tie2 fusion protein was adapted to the respective activity of the enzyme and adjusted such that the assay was carried out in the linear range. Typical concentrations were in the range of 30 ng/ml.
The reaction was stopped by addition of 5 μl of a solution of TR-FRET detection reagents [200 nM streptavidin-XL665 and 2 nM PT66-Eu chelate, a europium chelate-labelled anti-phosphotyrosine antibody (Perkin-Elmer); alternatively, it is also possible to use PT66-Tb cryptate (Cisbio Bioassays, Codolet, France)] in aqueous EDTA solution[90 mM EDTA, 0.28% (w/v) bovine serum albumin (BSA) in 50 mM HEPES pH 7.5]. The resulting mixture was incubated at 22° C. for 1 h to allow formation of the complex of the biotinylated phosphorylated substrate and the detection reagents. The amount of phosphorylated substrate was then determined by measuring the resonance energy transfer from PT66-Eu chelate to streptavidin-XL665. To this end, the fluorescence emissions at 620 nm and 665 nm after excitation at 350 nm were measured in a TR-FRET measuring instrument (for example Viewlux, Perkin-Elmer). The ratio of the emissions at 665 nm and at 620 nm was taken as a measure of the amount of phosphorylated substrate.
Usually, the test substance in question was tested on the same microtitre plate at […] different concentrations in the range from 20 μM to 0.073 nM (for example at 20 μM, 5.7 μM, 1.6 μM, 0.47 μM, 0.13 μM, 38 nM, 11 nM, 3.1 nM, 0.89 nM, 0.25 nM and 0.073 nM) in duplicate for each concentration. The dilution series were prepared prior to the assay at the stage of the 100-fold concentrated solution by serial dilution (the exact concentrations may vary depending on the pipettors used in each case). IC50 values were calculated using a 4-parameter fit, with the aid of inhouse software.
Table 1 below lists the IC50 values from this assay for individual working examples (in some cases as means of several independent individual determinations): […]
Work on Cc1ccc(NC(=O)c2cc(O)cc(S(F)(F)(F)(F)F)c2)cc1-n1ccn2nc(-c3cccnc3)cc12 [Example 20, 3-Hydroxy-N-{4-methyl-3-[6-(pyridin-3-yl)-1H-imidazo[1,2-b]pyrazol-1-yl]phenyl}-5-(pentafluoro-λ^6-sulphanyl)benzamide] yielded an IC50 of 3.1 nM.
In the case of COc1cc(C(=O)Nc2ccc(C)c(-n3ccn4nc(-c5cccnc5)cc34)c2)cc(S(F)(F)(F)(F)F)c1 [Example 21, 3-Methoxy-N-{4-methyl-3-[6-(pyridin-3-yl)-1H-imidazo[1,2-b]pyrazol-1-yl]phenyl}-5-(pentafluoro-λ^6-sulphanyl)benzamide], the IC50 is reported as 2.1 nM.
With Cc1ccc(NC(=O)c2cc(OCCN)cc(S(F)(F)(F)(F)F)c2)cc1-n1ccn2nc(-c3cccnc3)cc12 [Example 22, 3-(2-Aminoethoxy)-N-{4-methyl-3-[6-(pyridin-3-yl)-1H-imidazo[1,2-b]pyrazol-1-yl]phenyl}-5-(pentafluoro-λ^6-sulphanyl)benzamide] the IC50 was 0.6 nM.
Cc1ccc(NC(=O)c2cc(OCCCN)cc(S(F)(F)(F)(F)F)c2)cc1-n1ccn2nc(-c3cccnc3)cc12 [Example 23, 3-(3-Aminopropoxy)-N-{4-methyl-3-[6-(pyridin-3-yl)-1H-imidazo[1,2-b]pyrazol-1-yl]phenyl}-5-(pentafluoro-λ^6-sulphanyl)benzamide] gave an IC50 of 0.3 nM.
With Cc1ccc(NC(=O)c2cc(OC3CNC3)cc(S(F)(F)(F)(F)F)c2)cc1-n1ccn2nc(-c3cccnc3)cc12 [Example 24, 3-(Azetidin-3-yloxy)-N-{4-methyl-3-[6-(pyridin-3-yl)-1H-imidazo[1,2-b]pyrazol-1-yl]phenyl}-5-(pentafluoro-λ^6-sulphanyl)benzamide] the IC50 was 0.8 nM.
Molecule Cc1ccc(NC(=O)c2cc(OC3CCNC3)cc(S(F)(F)(F)(F)F)c2)cc1-n1ccn2nc(-c3cccnc3)cc12 (stereo not drawn) [Example 25, N-{4-Methyl-3-[6-(pyridin-3-yl)-1H-imidazo[1,2-b]pyrazol-1-yl]phenyl}-3-(pentafluoro-λ^6-sulphanyl)-5-(pyrrolidin-3-yloxy)benzamide] has an IC50 of 1.9 nM.
Molecule Cc1ccc(NC(=O)c2cc(Cl)cc(S(F)(F)(F)(F)F)c2)cc1-n1ccn2nc(-c3cccnc3)cc12 [Example 27, 3-Chloro-N-{4-methyl-3-[6-(pyridin-3-yl)-1H-imidazo[1,2-b]pyrazol-1-yl]phenyl}-5-(pentafluoro-λ^6-sulphanyl)benzamide] has an IC50 of 3.1 nM.
For Cc1ccc(NC(=O)c2cc(C(N)=O)cc(S(F)(F)(F)(F)F)c2)cc1-n1ccn2nc(-c3cccnc3)cc12 [Example 29, N-{4-Methyl-3-[6-(pyridin-3-yl)-1H-imidazo[1,2-b]pyrazol-1-yl]phenyl}-5-(pentafluoro-λ^6-sulphanyl)isophthalamide], the IC50 was 2 nM.
Cc1cc(C(=O)Nc2ccc(C)c(-n3ccn4nc(-c5cccnc5)cc34)c2)cc(S(F)(F)(F)(F)F)c1 [Example 30, 3-Methyl-N-{4-methyl-3-[6-(pyridin-3-yl)-1H-imidazo[1,2-b]pyrazol-1-yl]phenyl}-5-(pentafluoro-λ^6-sulphanyl)benzamide] showed an IC50 of 2 nM.
Cc1ccc(NC(=O)c2cc(CO)cc(S(F)(F)(F)(F)F)c2)cc1-n1ccn2nc(-c3cccnc3)cc12 [Example 31, 3-(Hydroxymethyl)-N-{4-methyl-3-[6-(pyridin-3-yl)-1H-imidazo[1,2-b]pyrazol-1-yl]phenyl}-5-(pentafluoro-λ^6-sulphanyl)benzamide] was tested, and the IC50 was 1.1 nM.
Molecule Cc1ccc(NC(=O)c2cc(CN3CCCC3)cc(S(F)(F)(F)(F)F)c2)cc1-n1ccn2nc(-c3cccnc3)cc12 [Example 33, N-{4-Methyl-3-[6-(pyridin-3-yl)-1H-imidazo[1,2-b]pyrazol-1-yl]phenyl}-3-(pentafluoro-λ^6-sulphanyl)-5-(pyrrolidin-1-ylmethyl)benzamide] has an IC50 of 2.5 nM.
In the case of Cc1ccc(NC(=O)c2cc(CN3CC[C@H](O)C3)cc(S(F)(F)(F)(F)F)c2)cc1-n1ccn2nc(-c3cccnc3)cc12 [Example 34, 3-{[(3S)-3-Hydroxypyrrolidin-1-yl]methyl}-N-{4-methyl-3-[6-(pyridin-3-yl)-1H-imidazo[1,2-b]-pyrazol-1-yl]phenyl}-5-(pentafluoro-λ^6-sulphanyl)benzamide], the IC50 is reported as 2.1 nM.
Cc1ccc(NC(=O)c2cc(CN3CCNCC3)cc(S(F)(F)(F)(F)F)c2)cc1-n1ccn2nc(-c3cccnc3)cc12 [Example 35, N-{4-Methyl-3-[6-(pyridin-3-yl)-1H-imidazo[1,2-b]pyrazol-1-yl]phenyl}-3-(pentafluoro-λ^6-sulphanyl)-5-(piperazin-1-ylmethyl)benzamide] was tested, and the IC50 was 0.5 nM.
Work on Cc1ccc(NC(=O)c2cc(CN3CCN(C)CC3)cc(S(F)(F)(F)(F)F)c2)cc1-n1ccn2nc(-c3cccnc3)cc12 [Example 36, 3-[(4-Methylpiperazin-1-yl)methyl]-N-{4-methyl-3-[6-(pyridin-3-yl)-1H-imidazo[1,2-b]pyrazol-1-yl]phenyl}-5-(pentafluoro-λ^6-sulphanyl)benzamide] yielded an IC50 of 0.3 nM.
Cc1ccc(NC(=O)c2cc(C3(O)CNC3)cc(S(F)(F)(F)(F)F)c2)cc1-n1ccn2nc(-c3cccnc3)cc12 [Example 37, 3-(3-Hydroxyazetidin-3-yl)-N-{4-methyl-3-[6-(pyridin-3-yl)-1H-imidazo[1,2-b]pyrazol-1-yl]-phenyl}-5-(pentafluoro-λ^6-sulphanyl)benzamide bis(trifluoroacetate)] showed an IC50 of 0.4 nM.
Cc1ccc(NC(=O)c2cc(C#N)cc(OC(F)(F)F)c2)cc1-n1ccn2nc(-c3cccnc3)cc12 [Example 38, 3-Cyano-N-{4-methyl-3-[6-(pyridin-3-yl)-1H-imidazo[1,2-b]pyrazol-1-yl]phenyl}-5-(trifluoromethoxy)benzamide] gave an IC50 of 15 nM.
Cc1ccc(NC(=O)c2cccc(C(F)(F)F)c2)cc1-n1ccn2nc(-c3cccnc3)cc12 [Example 39, N-{4-Methyl-3-[6-(pyridin-3-yl)-1H-imidazo[1,2-b]pyrazol-1-yl]phenyl}-3-(trifluoromethyl)-benzamide] gave an IC50 of 320 nM.
Cc1ccc(NC(=O)c2cc(N3CCN(C)CC3)cc(C(F)(F)F)c2)cc1-n1ccn2nc(-c3cccnc3)cc12 [Example 41, 3-(4-Methylpiperazin-1-yl)-N-{4-methyl-3-[6-(pyridin-3-yl)-1H-imidazo[1,2-b]pyrazol-1-yl]-phenyl}-5-(trifluoromethyl)benzamide] was tested, and the IC50 was 35 nM.
Cc1ccc(NC(=O)c2cc(N(C)CCCN(C)C)cc(C(F)(F)F)c2)cc1-n1ccn2nc(-c3cccnc3)cc12 [Example 42, 3-{[3-(Dimethylamino)propyl](methyl)amino}-N-{4-methyl-3-[6-(pyridin-3-yl)-1H-imidazo-[1,2-b]pyrazol-1-yl]phenyl}-5-(trifluoromethyl)benzamide] gave an IC50 of 1.5 nM.
Cc1ccc(NC(=O)c2cc(C(F)(F)F)cc(C(F)(F)F)c2)cc1-n1ccn2nc(-c3cccnc3)cc12 [Example 43, N-{4-Methyl-3-[6-(pyridin-3-yl)-1H-imidazo[1,2-b]pyrazol-1-yl]phenyl}-3,5-bis(trifluoromethyl)-benzamide] was tested, and the IC50 was 56 nM.
Cc1ccc(NC(=O)c2cc(C#N)cc(C(F)(F)F)c2)cc1-n1ccn2nc(-c3cccnc3)cc12 [Example 44, 3-Cyano-N-{4-methyl-3-[6-(pyridin-3-yl)-1H-imidazo[1,2-b]pyrazol-1-yl]phenyl}-5-(trifluoromethyl)benzamide] showed an IC50 of 130 nM.
